Values quoted from earlier work, collected in US20030232369A1, “Molecular structure of RNA polymerase II” (priority 2002, published 2003).

Columns and labels:
pol II [1] = details: relative to α-amanitin
pol II [2] = system: pol II

| Compound | reduction of inhibition (fold less inhibitory than α-amanitin) (pol II [1]) | effect on transcription (pol II [2]) | influence of α-amanitin binding on the affinity of pol II for nucleoside triphosphates (pol II [2]) | rate of translocation of pol II on DNA (pol II [2]; after addition of α-amanitin to a transcribing pol II complex) |
| --- | --- | --- | --- | --- |
| CCC(C)C1NC(=O)CNC(=O)C2Cc3c([nH]c4cc(O)ccc34)[S+]([O-])CC(NC(=O)CNC1=O)C(=O)NC(CC(N)=O)C(=O)N1CC(O)CC1C(=O)NC(C(C)CC)C(=O)N2 (centres unmarked) [amanullin] | about 4 fold |  |  |  |
| proamanullin | about 20,000 fold |  |  |  |
| CC[C@H](C)[C@@H]1NC(=O)CNC(=O)[C@@H]2Cc3c([nH]c4cc(O)ccc34)[S+]([O-])C[C@@H](NC(=O)CNC1=O)C(=O)N[C@@H](CC(N)=O)C(=O)N1C[C@H](O)C[C@H]1C(=O)N[C@@H]([C@@H](C)[C@@H](O)CO)C(=O)N2 (stereo in doubt) [α-amanitin] |  | blocks both transcription initiation and elongation | little if any influence | reduced from several thousand to only a few |
